The text below walks through data of patent publication EP4800015A1, “AZABICYCLO DERIVATIVE AND PREPARATION METHOD THEREFOR, AND USE” (Zhejiang Hisun Pharmaceutical Co., Ltd., priority 2023, dated 2025).

SMILES strings stand for the structures. Some results are limits rather than exact numbers.

The nature of data set [1]: Metabolic stability in dog liver microsomes. Format: in vitro ADME. As to conditions: dog liver microsomes 0.5 mg mL^-1, NADPH 1 mM, 0-60 min; read-out: Liver microsomal stability t1/2 (min) Dog. As to the method:
(§1) The purpose of this study was to investigate the metabolic stability of the compounds of the present disclosure in human and dog liver microsomes.
(§2) The compounds were co-incubated with human (or dog) liver microsomes, and the reaction was initiated by adding coenzyme NADPH (1 mM). At 0, 5, 15, 30, and 60 minutes, 60 µL of incubation solution was removed, and 180 µL of acetonitrile containing internal standard (clopidogrel) was added to quench the reaction, the mixture was shaken for 10 seconds, centrifuged at 10000 rpm for 10 minutes, and the supernatant was taken for analysis by LC-MS/MS. The in vitro intrinsic clearance was calculated based on the elimination half-life of the test compound in the incubation system. Midazolam was used as an internal reference compound, with two parallel incubations for each. Incubation conditions are summarized in Table 6 below: Table 6 Incubation conditions for the example compounds of the present disclosure
(§3) The ratio of the peak area of analyte to internal standard (Aanalyte/AIS) was obtained from the instrument, and the remaining percentage (%Control) was calculated from the ratio of Aanalyte/AIS in non-zero time point samples to zero time samples. Ln (%Control) was plotted against incubation time and linearly fitted. The test compound clearance constant (k, min^-1) and clearance half-life (T1/2, min) were calculated using the following equations. k = −slope [formula] T1/2 = 0.693/k. [formula]
A general note: Microsomes from liver hold many membrane-bound enzymes, among them those of drug oxidation.

Data set [2] is described as follows: Pharmacokinetic test in mice after intragastric administration. Format: in vivo. As to conditions: male, mouse, plasma, ICR mice, Oral (10 mg/kg); for AUC(0-t): read-out: Area under curve AUC0-t; for half-life: read-out: Half-life T1/2 (converted); for Cmax: read-out: Plasma concentration Cmax. How it is done: ICR mice were used as test animals, the plasma concentrations of the control compound HRO761 and the compounds of the present disclosure at different time points after intragastric administration were determined by LC/MS/MS method, and the pharmacokinetic characteristics of the compounds of the present disclosure in mice were studied.
ICR mice, male, 30.8 to 38.0 g, purchased from Vital River Laboratory Animal Technology Co., Ltd.
An appropriate amount of the test compound was weighed, and an appropriate amount of DMA (N,N-dimethylacetamide), 30% Solutol HS15 (30% polyethylene glycol-15 hydroxystearate), and Saline (saline) were added sequentially, the mixture was ultrasonicated and vortex mixed to prepare a 1 mg/mL dosing formulation. The ratio of DMA:30% Solutol HS15:Saline was 5:5:90 (v/v/v).
After overnight fasting, ICR mice in each test compound injection group (9 mice per group) were administered intragastrically (PO, compound dose was 10 mg/kg, administration volume was 10 mL/kg), and food was given 4 hours after administration.
About 0.1 mL of blood was collected via the orbital cavity before administration and at 0.25 h, 0.5 h, 1 h, 2 h, 4 h, 8 h, 10 h, and 24 h after administration, and whole blood samples were placed in anticoagulant tubes containing EDTA-K2. The samples were placed on ice after collection, and plasma was separated by centrifugation (centrifugation conditions: 1500 g, 10 minutes). The collected plasma was stored at -40 to -20 °C before analysis.
The content of the test compound in mouse plasma after intragastric administration was determined by LC-MS/MS.

In a further data set the test system is RL95-2 cells. As to the kind of experiment: Inhibition of RL95-2 cell proliferation (CellTiter-Glo). Format: cell-based. The following applies: Homo sapiens; RL95-2 cells (MSI-H), 120 hours. In a few lines: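 Proliferation IC50 derived by nonlinear regression of % inhibition against log concentration, with 0.1% DMSO wells as reference. CellTiter-Glo luminescence was read after 120 h of compound exposure (10000 nM down to 1.52 nM final) at 37 °C. MSI-H RL95-2 cells seeded at 500/well in DMEM/F12 with 10% FBS the day before.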

Data set [3] can be described thus: Metabolic stability in human liver microsomes. The data set is classed as in vitro ADME. As to conditions: human liver microsomes 0.5 mg mL^-1, NADPH 1 mM, 0-60 min; read-out: Liver microsomal stability t1/2 (min) Human. As to the method: as §1, §2, §3
For a further data set, the target named is T1, recombinant human WRN (Homo sapiens, UniProt Q14191).
T1 construct: purchased BPS 101264
T1 sequence (Q14191 whole entry): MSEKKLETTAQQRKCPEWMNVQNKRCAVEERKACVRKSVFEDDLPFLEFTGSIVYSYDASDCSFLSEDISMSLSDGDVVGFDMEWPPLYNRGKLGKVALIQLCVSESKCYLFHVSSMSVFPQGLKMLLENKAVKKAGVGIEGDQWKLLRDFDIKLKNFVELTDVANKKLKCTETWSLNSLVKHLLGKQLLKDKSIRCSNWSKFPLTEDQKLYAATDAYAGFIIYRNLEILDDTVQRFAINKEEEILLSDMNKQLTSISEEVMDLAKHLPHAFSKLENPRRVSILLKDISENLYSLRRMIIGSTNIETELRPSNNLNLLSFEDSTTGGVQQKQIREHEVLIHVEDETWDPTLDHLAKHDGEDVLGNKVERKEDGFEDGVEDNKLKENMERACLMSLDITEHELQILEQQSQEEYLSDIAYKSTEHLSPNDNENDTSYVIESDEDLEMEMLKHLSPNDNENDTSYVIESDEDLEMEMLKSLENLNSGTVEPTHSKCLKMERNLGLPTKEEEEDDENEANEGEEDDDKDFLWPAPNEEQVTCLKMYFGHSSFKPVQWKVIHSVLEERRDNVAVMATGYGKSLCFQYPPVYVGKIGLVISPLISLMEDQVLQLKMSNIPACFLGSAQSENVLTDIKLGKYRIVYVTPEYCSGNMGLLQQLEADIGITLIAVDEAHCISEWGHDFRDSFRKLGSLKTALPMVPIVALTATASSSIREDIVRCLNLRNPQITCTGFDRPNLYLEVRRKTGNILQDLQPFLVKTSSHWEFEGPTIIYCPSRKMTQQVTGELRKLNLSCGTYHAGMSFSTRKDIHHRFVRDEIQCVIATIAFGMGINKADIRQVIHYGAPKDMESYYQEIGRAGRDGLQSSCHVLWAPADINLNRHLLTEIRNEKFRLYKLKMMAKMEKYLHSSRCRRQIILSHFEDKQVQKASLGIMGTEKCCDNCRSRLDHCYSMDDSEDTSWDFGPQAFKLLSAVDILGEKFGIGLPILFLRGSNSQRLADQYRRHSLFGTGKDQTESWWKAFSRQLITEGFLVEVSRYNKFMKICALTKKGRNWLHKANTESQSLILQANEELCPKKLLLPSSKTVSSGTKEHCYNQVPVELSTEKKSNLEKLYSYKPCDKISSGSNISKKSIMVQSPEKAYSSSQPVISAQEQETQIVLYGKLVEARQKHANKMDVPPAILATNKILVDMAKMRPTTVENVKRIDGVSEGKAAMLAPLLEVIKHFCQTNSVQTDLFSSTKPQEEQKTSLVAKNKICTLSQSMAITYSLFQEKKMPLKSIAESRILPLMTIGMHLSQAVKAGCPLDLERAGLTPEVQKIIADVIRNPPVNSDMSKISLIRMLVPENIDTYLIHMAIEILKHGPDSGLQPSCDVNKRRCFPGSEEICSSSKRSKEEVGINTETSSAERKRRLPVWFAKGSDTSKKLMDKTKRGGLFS
As to the kind of experiment: Inhibition of WRN enzyme activity (ATPase), ADP-Glo Kinase Assay. Format: biochemical. The following applies: WRN protein 5 nM, Flap 0.1 nM, ATP 30 µM; read-out: IC50. In a few lines: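 ATPase activity was measured by ADP-Glo luminescence after a 10-min room-temperature reaction with 30 µM ATP and 0.1 nM Flap26 oligonucleotide substrate. The 5 nM WRN had first been exposed to compound (0.004–1000 nM) for 15 min in pH 7.5 Tris buffer with 2 mM MgCl2. IC50 values came from log-concentration regression against the DMSO control.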
A general note: ADP-Glo turns the ADP formed in a reaction into a luminescent signal.

In a further data set the test system is SW48 cells. As to the kind of experiment: Inhibition of SW48 cell proliferation (CellTiter-Glo). The data set is classed as cell-based. The following applies: Homo sapiens; SW48 cells (MSI-H), 120 hours. In a few lines:
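SW48 (MSI-H) cells in L-15 with 10% FBS were seeded at 500 per well, cultured overnight at 37 °C, then exposed to compound at final concentrations of 10000 nM to 1.52 nM for 120 h. Viability was read by CellTiter-Glo luminescence, with inhibition relative to 0.1% DMSO. IC50 from nonlinear regression of log concentration versus inhibition.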

The nature of data set [4]: Caco-2 bidirectional permeability and efflux ratio. Format: in vitro ADME. The following applies: human, Caco-2, 10 µM, 120 minutes. As to the method: (§4) The bidirectional permeability and efflux ratio of the example compounds and control compound were determined in a Caco-2 monolayer cell model.
(§5) Caco-2 cells (cultured at Shanghai Medicilon Inc.) were recovered in the experiment. After the cells were in good condition, they were digested, and the cell density was adjusted (1 × 10^5 cells/cm^2). Caco-2 cells were seeded into Transwell chambers and placed in 24-well plates for cultivation. After continuous cultivation for about 21 days, TEER values were measured one day before the experiment to ensure formation of a confluent cell monolayer for transport experiments (TEER > 200 Ω·cm^2). Test compounds were diluted from 10 mM stock solutions to 10 µM concentration using transport buffer (HBSS containing BSA) (metoprolol and atenolol were set as positive compounds). For efflux determination, 0.6 mL of compound dilution solution was added to the outer well (side B), and 0.4 mL of blank transport buffer was added to the Transwell chamber. For absorption determination, 0.4 mL of transport buffer containing compound was added to the Transwell chamber, and 0.6 mL of blank transport buffer was added to the outer side. After setup, the 24-well plates were cultivated at 37 °C and 5% CO2 with 95% relative humidity for 120 minutes, and permeability of test compounds from A to B direction or B to A direction was measured, respectively, with two duplicate wells set for each direction. Liquid in Transwell chambers and 24-well plates was collected separately, 60 µL each, and 180 µL of acetonitrile (containing internal standard) was added, vortexed for 1 min, then centrifuged at 4 °C, 10000 rpm for 10 min. The supernatant was taken, filtered through a 0.22 µm membrane, and placed in vials for testing. The content of the compounds in each Transwell chamber and 24-well plate was determined by liquid chromatography-tandem mass spectrometry (LC-MS/MS). Table 4 Permeability data of compounds of the present disclosure
For orientation: Caco-2 cells form a polarised layer with tight junctions and transporters.

Data set [5] deals with Caco-2 monolayer cell model. As to the kind of experiment: Caco-2 bidirectional permeability and efflux ratio. Format: in vitro ADME. As to conditions: Caco-2, conclusion. How it is done:
as §4, §5

As for `CCc1c(N2CCN(C(=O)c3ncnc(C)c3O)CC2)c(=O)n2nc(-c3ccc4occc4c3)nc2n1CC(=O)Nc1ccc(C(F)(F)F)cc1Cl` [Example 67, 2-(2-(benzofuran-5-yl)-5-ethyl-6-(4-(5-hydroxy-6-methylpyrimidine-4-carbonyl)piperazin-1-yl)-7-oxo-[1,2,4]triazolo[1,5-a]pyrimidin-4(7H)-yl)-N-(2-chloro-4-(trifluoromethyl)phenyl)acetamide], the half-life is 318 min in data set [1], 0.66 h in data set [2] and 657 min in data set [3]. Besides, the AUC(0-t) in data set [2] is 83400 ng·h/mL. In addition, in data set [2], the Cmax worked out at 31400 ng/mL. Besides, the half-inhibitory concentration (IC50) in the data set with RL95-2 cells was 1 to 100 nM; on recombinant human WRN it was under 1 nM.

With `CCc1c(N2CCN(C(=O)c3ncnc(C)c3O)CC2)c(=O)n2nc(-c3ccc4ncsc4c3)nc2n1CC(=O)Nc1ccc(C(F)(F)F)cc1Cl` [Example 125, 2-(2-(benzo[d]thiazol-6-yl)-5-ethyl-6-(4-(5-hydroxy-6-methylpyrimidine-4-carbonyl)piperazin-1-yl)-7-oxo-[1,2,4]triazolo[1,5-a]pyrimidin-4(7H)-yl)-N-(2-chloro-4-(trifluoromethyl)phenyl)acetamide], the half-life in data set [1] turned out to be 182 min; in data set [3], 705 min. Further, the IC50 was 1 to 100 nM in the data set on RL95-2 cells, under 1 nM at recombinant human WRN and 1 to 100 nM in the data set on SW48 cells.

Turning to `CCc1c(N2CCN(C(=O)c3ncnc(C)c3O)CC2)c(=O)n2nc(C3=CCOCC3)nc2n1CC(=O)Nc1ccc(C(F)(F)F)cc1Cl` [HRO761, reference compound], the half-life in data set [1] came out at 175 min. Besides, in data set [2], the AUC(0-t) was found to be 15600 ng·h/mL, the half-life is 2.81 h and the Cmax is 7010 ng/mL. Besides, in data set [3], the half-life is 483 min. The efflux ratio at 120 min, 10 µM in data set [4] (read-out: Efflux ratio Papp(B-A)/ Papp(A-B)) turned out to be 3.65. For the same compound, the Papp A→B at 120 min, 10 µM in data set [4] (A to B) worked out at 3.96 ×10⁻⁶ cm/s. Also, the Papp B→A at 120 min, 10 µM in data set [4] (B to A) came to 14.5 ×10⁻⁶ cm/s. Besides, in data set [5], the “efflux (in words)” value was “apparent potential efflux properties” and the “permeability (in words)” value is on record as “moderate permeability”.

The IC50 is the point on the concentration scale where inhibition reaches its midpoint. As a reminder, the Papp A→B is the apparent permeability from the apical to the basolateral side of a cell layer. A word on the Papp B→A: it is how fast a substance crosses the layer from the basolateral side.
